Values of other authors in publication PMC5979345, “Identification of an ACE-Inhibitory Peptide from Walnut Protein and Its Evaluation of the Inhibitory Mechanism” (International Journal of Molecular Sciences, 2018).

Assays:
[1] = test system: ACE; conditions: identified from Stichopus horrens
Protocol: To further evaluate the active mechanism of the novel ACEI peptide, the inhibition pattern of the peptide, EPNGLLLPQY, against ACE was investigated by the Line weaver-Burk plot analysis method. […] When the EPNGLLLPQY was added to the r ...

[2] = test system: ACE; conditions: from walnut protein digested by neutral proteinase As1.398, 45 °C, 5 h, pH 7.0
Protocol: In the present study, the peptide EPNGLLLPQY was identified from the hydrolysate of walnut protein digested by […]. Moreover, there were several reports related to the peptides from walnut protein hydrolysates with ACE-inhibitory activity.

EVSQGRP [food-derived peptide identified from Stichopus horrens]
Inhibition pattern [1]: mixed-type of inhibition

LPGRPPIKPWPL
ACE-inhibitory activity (in words) [2]: ACE-inhibitory peptides

SAAVGSP [food-derived peptide identified from Stichopus horrens]
Inhibition pattern [1]: mixed-type of inhibition

VSRHFASYAN [food-derived peptide identified from Stichopus horrens]
Inhibition pattern [1]: mixed-type of inhibition

WPERPPQIP
ACE-inhibitory activity (in words) [2]: ACE-inhibitory peptides
